Assays:
[1] = Amounts of drugs solubilized at 20° C. in water, with PVP, with PEG-GTR and with the method of the invention; assay type: physicochemical
From the text: In this table, the solubility of each drug in water is compared with the solubility obtainable with the complexation method (with PVP) and with the solubility obtainable with the micellar solubilization method with surfactants (with PEG-GTR). In all cases it is evident that the combined method according to the invention affords solubility increases that are largely greater than the sum of the increases obtainable with each one of the prior art methods.

[2] = co-precipitated with PVP having M.W.=50,000; cited from earlier work
[3] = PVP (M.W. = 10,000) 18.0 % w/w in water

Structure (SMILES): COc1ccc2c(C(=S)N(C)CC(=O)O)cccc2c1C(F)(F)F [Tolrestat]
- Amt. of drug solubilized at 20° C. (% w/w) ([1]; PEG-GTR 6.0 % w/w in water): 0.60 % w/w
- Amt. of drug solubilized at 20° C. (% w/w) ([1]; PEG-GTR 8.0 % w/w in water): 0.80 % w/w
- Amt. of drug solubilized at 20° C. (% w/w) ([1]; PEG-GTR 10.0 % w/w in water): 1.20 % w/w
- Amt. of drug solubilized at 20° C. (% w/w) ([1]; PVP (M.W. 10,000) + PEG-GTR (18.0 + 8.0 % w/w), method of the invention): 2.0 % w/w
- Amt. of drug solubilized at 20° C. (% w/w) [1, 3]: 0.05 % w/w
- Amt. of drug solubilized at 20° C. (% w/w) ([1]; PVP (M.W. = 10,000) + PEG-GTR (18.0 + 6.0 % w/w), method of the invention): 1.50 % w/w
- Amt. of drug solubilized at 20° C. (% w/w) ([1]; PVP (M.W. = 10,000) + PEG-GTR (18.0 + 10.0 % w/w), method of the invention): 3.0 % w/w
- solubility in water ([1]; at 20° C.): 0.75 mg/100 g of water
- solubility when treated with complexation with PVP ([1]; complexation with PVP): 0.05 % (w/w)
- solubility by means of surface-active agents ([1]; optimized choice of surfactant and amounts): ~1.2 % (w/w)
- original solubility ([1]; water, no solubilization technique): 0.00075 % (w/w)
- Amt. of drug solubilized at 20° C. (% w/w) ([1]; water, solubilizing agent none): 0.00075 % w/w

Structure (SMILES): CN1C(C(=O)Nc2ccccn2)=C(O)c2ccccc2S1(=O)=O [Piroxicam]
- Amt. of drug solubilized at 20° C. (% w/w) ([1]; PEG-GTR 2.5 % w/w in water): 0.13 % w/w
- Amt. of drug solubilized at 20° C. (% w/w) ([1]; PVP (M.W. = 10,000) 20.0 % w/w in water): 0.081 % w/w
- Amt. of drug solubilized at 20° C. (% w/w) ([1]; PVP (M.W. = 10,000) + PEG-GTR (20.0 + 2.5 % w/w), method of the invention): 0.50 % w/w
- Amt. of drug solubilized at 20° C. (% w/w) ([1]; water, solubilizing agent none): 0.0017 % w/w

Structure (SMILES): CN1CCN(c2c(F)cc3c(=O)c(C(=O)O)cn4c3c2SCC4)CC1 [Rufloxacin]
- Amt. of drug solubilized at 20° C. (% w/w) ([1]; PEG-GTR 1.0 % w/w in water): 0.03 % w/w
- Amt. of drug solubilized at 20° C. (% w/w) ([1]; PVP (M.W. = 44,000-54,000) 15.0 % w/w in water): 0.24 % w/w
- Amt. of drug solubilized at 20° C. (% w/w) ([1]; PVP (M.W. = 44,000-54,000) + PEG-GTR (15.0 + 1.0 % w/w), method of the invention): 0.30 % w/w
- Amt. of drug solubilized at 20° C. (% w/w) ([1]; water, solubilizing agent none): 0.029 % w/w

Structure (SMILES): C=C[C@@]1(C)CC(=O)[C@]2(O)[C@@]3(C)[C@@H](O)CCC(C)(C)[C@@H]3[C@H](O)[C@H](OC(C)=O)[C@@]2(C)O1 [Forskolin]
- Amt. of drug solubilized at 20° C. (% w/w) ([1]; PEG-GTR 10.0 % w/w in water): 0.05 % w/w
- Amt. of drug solubilized at 20° C. (% w/w) ([1]; PVP (M.W. = 10,000) 30.0 % w/w in water): 0.03 % w/w
- Amt. of drug solubilized at 20° C. (% w/w) ([1]; PVP (M.W. = 10,000) + PEG-GTR (30.0 + 10.0 % w/w), method of the invention): 0.20 % w/w
- Amt. of drug solubilized at 20° C. (% w/w) ([1]; water, solubilizing agent none): 0.0029 % w/w

Structure (SMILES): CC(=O)OCC(=O)[C@@]12OC(C)(C)O[C@@H]1C[C@H]1[C@@H]3CC(C=O)=C4C=C(OCCCl)CC[C@]4(C)[C@@]3(F)[C@@H](O)C[C@@]12C [Formocortal]
- Amt. of drug solubilized at 20° C. (% w/w) ([1]; PEG-GTR 5.0 % w/w in water): 0.0252 % w/w
- Amt. of drug solubilized at 20° C. (% w/w) [1, 3]: 0.0022 % w/w
- Amt. of drug solubilized at 20° C. (% w/w) ([1]; PVP (M.W. = 10,000) + PEG-GTR (18.0 + 5.0 % w/w), method of the invention): 0.10 % w/w
- Amt. of drug solubilized at 20° C. (% w/w) ([1]; water, solubilizing agent none): 0.008 % w/w

Structure (SMILES): C[C@@H]1O[C@@H](OC[C@H]2O[C@@H](Oc3c(-c4ccc(O)c(O)c4)oc4cc(O)cc(O)c4c3=O)[C@H](O)[C@@H](O)[C@@H]2O)[C@H](O)[C@H](O)[C@H]1O [Rutin]
- Amt. of drug solubilized at 20° C. (% w/w) ([1]; PEG-GTR 10.0 % w/w in water): 0.074 % w/w
- Amt. of drug solubilized at 20° C. (% w/w) ([1]; PVP (M.W. = 2000-3000) 30.0 % w/w in water): 0.37 % w/w
- Amt. of drug solubilized at 20° C. (% w/w) ([1]; PVP (M.W. = 2000-3000) + PEG-GTR (30.0 + 10.0 % w/w), method of the invention): 1.0 % w/w
- Amt. of drug solubilized at 20° C. (% w/w) ([1]; water, solubilizing agent none): 0.0125 % w/w

Structure (SMILES): O=C1NC(=O)C(c2ccccc2)(c2ccccc2)N1 [phenytoin]
- solutions stability [2]: maximum of two years

Reference: patent US6346273B1, “Process for solubilizing pharmaceutically active ingredients in water and in aqueous vehicles” (Farmigea S.p.A., priority 1997, dated 2002)
